molecular target: T1, αvβ3 purified from 293 cells overexpressing αvβ3 (Homo sapiens, UniProt P05106+P06756); assay: SPAV3 binding assay (scintillation proximity)
T1 construct: made in house; host or cells: 293 cells overexpressing αvβ3
Text: • 1. Wheat germ agglutinin Scintillation Proximity Beads (SPA): Amersham • 2. Octylglucopyranoside: Calbiochem • 3. HEPES: Calbiochem • 4. NaCl: Fisher • 5. CaCl2: Fisher • 6. MgCl2: SIGMA • 7. Phenylmethylsulfonylfluoride (PMSF): SIGMA • 8. Optiplate: PACKARD • 9. (S)-3-(4-(2-(6-aminopyridin-2-yl)ethyl)benzamido)-2-((4-(iodo-^125I)phenyl)sulfonamido)propanoic acid as found in WO0046215 (specific activity 500-1000 Ci/mmole) • 10. Test compound • 11. Purified integrin receptor: αvβ3 was purified from 293 cells overexpressing αvβ3 (Duong et al., J. Bone Min. Res., 8:S378, 1993) according to Pytela (Methods in Enzymology, 144:475, 1987) • 12. Binding buffer: 50 mM HEPES, pH 7.8, 100 mM NaCl, 1 mM Ca^2+/Mg^2+, 0.5 mM PMSF • 13. 50 mM octylglucoside in binding buffer: 50-OG buffer
• 1. Pretreatment of SPA beads: • 500 mg of lyophilized SPA beads were first washed four times with 200 ml of 50-OG buffer and once with 100 ml of binding buffer, and then resuspended in 12.5 ml of binding buffer. • 2. Preparation of SPA beads and receptor mixture • In each assay tube, 2.5 μl (40 mg/ml) of pretreated beads were suspended in 97.5 μl of binding buffer and […] of 50-OG buffer. […] (˜30 ng/μ1) of purified receptor was added to the beads in suspension with stirring at room temperature for 30 minutes. The mixture was then centrifuged at 2,500 rpm in a Beckman GPR Benchtop centrifuge for 10 minutes at 4° C. The pellets were then resuspended in 50 μl of binding buffer and 25 μl of 50-OG buffer. • 3. Reaction • The following were sequentially added into Optiplate in corresponding wells: • (i) Receptor/beads mixture (75 μl) • (ii) 25 μl of each of the following: compound to be tested, binding buffer for total binding or A-8 for non-specific binding (final concentration 1 μM) • (iii) (S)-3-(4-(2-(6-aminopyridin-2-yl)ethyl)benzamido)-2-((4-(iodo-^125I)phenyl)sulfonamido)propanoic acid as found in WO0046215 (specific activity 500-1000 Ci/mmole) in binding buffer (25 μl, final concentration 40 pM) • (iv) Binding buffer (125 μl) • (v) Each plate was sealed with plate sealer from PACKARD and incubated overnight with rocking at 4° C. • 4. Plates were counted using PACKARD TOPCOUNT • 5. % inhibition was calculated as follows: • A=total counts • B=nonspecific counts • C=sample counts
% inhibition=[{(A−B)−(C−B)}/(A−B)]/(A−B)×100

T1 sequence (P06756 31-889 limits assumed): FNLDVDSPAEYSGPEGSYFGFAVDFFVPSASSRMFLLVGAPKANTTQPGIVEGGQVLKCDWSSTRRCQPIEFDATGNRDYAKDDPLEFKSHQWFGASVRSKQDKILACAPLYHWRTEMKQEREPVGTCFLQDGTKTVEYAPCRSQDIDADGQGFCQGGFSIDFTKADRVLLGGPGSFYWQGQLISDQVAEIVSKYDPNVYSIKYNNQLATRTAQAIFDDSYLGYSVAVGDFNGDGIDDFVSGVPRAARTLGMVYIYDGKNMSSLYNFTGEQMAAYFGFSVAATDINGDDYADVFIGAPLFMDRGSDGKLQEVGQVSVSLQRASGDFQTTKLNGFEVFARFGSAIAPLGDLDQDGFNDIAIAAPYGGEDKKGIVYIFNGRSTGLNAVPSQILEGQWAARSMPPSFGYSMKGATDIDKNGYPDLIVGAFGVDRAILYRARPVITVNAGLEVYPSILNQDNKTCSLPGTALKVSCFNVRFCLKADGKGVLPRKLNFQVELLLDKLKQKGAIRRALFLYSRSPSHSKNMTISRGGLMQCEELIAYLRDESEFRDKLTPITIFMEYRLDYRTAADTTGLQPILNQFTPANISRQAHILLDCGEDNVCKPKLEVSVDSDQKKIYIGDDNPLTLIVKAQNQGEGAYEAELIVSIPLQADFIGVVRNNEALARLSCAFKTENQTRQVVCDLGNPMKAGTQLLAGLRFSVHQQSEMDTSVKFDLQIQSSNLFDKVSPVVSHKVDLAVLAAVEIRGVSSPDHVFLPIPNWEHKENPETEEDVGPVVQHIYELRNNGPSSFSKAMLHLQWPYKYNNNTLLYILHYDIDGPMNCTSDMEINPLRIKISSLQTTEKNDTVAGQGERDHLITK
T1 sequence (P06756 891-1048 partner limits assumed): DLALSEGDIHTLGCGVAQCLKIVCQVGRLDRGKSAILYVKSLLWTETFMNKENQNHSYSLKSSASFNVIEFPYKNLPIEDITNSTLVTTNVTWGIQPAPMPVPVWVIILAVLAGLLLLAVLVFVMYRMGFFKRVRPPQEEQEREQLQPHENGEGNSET
T1 sequence (P05106 27-788): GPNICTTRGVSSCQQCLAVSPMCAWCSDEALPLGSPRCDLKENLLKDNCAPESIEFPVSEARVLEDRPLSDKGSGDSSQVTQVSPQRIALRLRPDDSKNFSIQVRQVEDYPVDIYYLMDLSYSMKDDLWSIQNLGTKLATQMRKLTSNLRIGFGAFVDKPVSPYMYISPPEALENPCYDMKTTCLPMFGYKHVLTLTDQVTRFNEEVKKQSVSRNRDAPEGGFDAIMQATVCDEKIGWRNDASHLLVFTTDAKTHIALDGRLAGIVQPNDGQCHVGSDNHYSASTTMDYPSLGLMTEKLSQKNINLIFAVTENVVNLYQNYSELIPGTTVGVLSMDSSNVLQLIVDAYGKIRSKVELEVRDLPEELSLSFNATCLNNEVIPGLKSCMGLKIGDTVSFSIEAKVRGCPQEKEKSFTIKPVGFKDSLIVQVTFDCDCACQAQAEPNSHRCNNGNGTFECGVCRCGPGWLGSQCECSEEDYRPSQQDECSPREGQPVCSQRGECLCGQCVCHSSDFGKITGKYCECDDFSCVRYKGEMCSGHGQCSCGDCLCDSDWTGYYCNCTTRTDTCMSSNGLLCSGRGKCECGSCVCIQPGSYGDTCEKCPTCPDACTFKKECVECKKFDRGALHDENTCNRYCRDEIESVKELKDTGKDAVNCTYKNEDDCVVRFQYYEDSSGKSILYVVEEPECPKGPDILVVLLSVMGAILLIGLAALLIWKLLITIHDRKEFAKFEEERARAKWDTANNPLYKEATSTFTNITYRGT

`Cc1ncc([C@@H](CCCCCCc2ccc3c(n2)NCCC3)CC(=O)O)cn1` [Compound F] was tested. Which IC50 did it give?
Its IC50 is 0.1 nM.

`O=C(O)C[C@H](/C=C/CCCCc1ccc2c(n1)NCCC2)c1cncnc1` [Compound E, 3 (R)-(Pyrimidin-5-yl)-9-(5,6,7,8-tetrahydro-[1,8]-naphthyridin-2-yl)-(E)-non-4-enoic Acid] was tested. Which IC50 did it give?
Its IC50 is 0.1 nM.

How did the IC50 turn out when `COc1ccc([C@H](CC(=O)O)N2CCN(CCCc3ccc4c(n3)NCCC43CC3)C2=O)cn1` [Compound C] was run?
The IC50 was 0.1 nM.

Which IC50 does the source give for `CCOc1ccc([C@H](CC(=O)O)N2CCN(CCCc3ccc4c(n3)NCCC4)C2=O)cn1` [Compound D] here?
The IC50 was 0.1 nM.

With `Cc1ncc(C(CC(=O)O)CC(=O)CCCCc2ccc3c(n2)NCCCC3)cn1` [Compound H, 3(R) and 3(S)-(2-Methyl-pyrimidin-5-yl)-5-oxo-9-(5,6,7,8-tetrahydro-5H-pyrido[2,3-b]azepin-2-yl)-nonanoic Acid] as the molecule, how does the IC50 read?
Its IC50 is 0.2 nM.

How did the IC50 turn out when `Cc1ncc(C(CC(=O)O)CC(=O)CCCCc2ccc3c(n2)NCCC3)cn1` (single isomer, unassigned) [Compound G, 3(S or R)-(2-Methyl-pyrimidin-5-yl)-5-oxo-9-(5,6,7,8-tetrahydro-[1,8]naphthyridin-2-yl)-nonanoic Acid] was run?
Its IC50 is 0.1 nM.

From patent US20180110762A1, “Compositions Methods for Treating Chronic Kidney Disease” (Merck Sharp & Dohme Corp, priority 2015, published 2018)
